US10550080B2 (BRISTOL-MYERS SQUIBB COMPANY, priority 2016, dated 2020)

Tests used:
NaV1.5 = NaV1.5 (Homo sapiens (Human), UniProt Q14524); experiment: Automated electrophysiology, IonWorks Barracuda population patch clamp, NaV1.5 current (inactivated-state protocol); type: cell-based; details: HEK 293 cells expressing NaV1.5; read-out: NaV1.5 Barra IC50
Procedure: (§1) Automated Electrophysiology: Ion Works Barracuda population patch clamp (PPC). PPC measurements were performed using an IonWorks Barracuda instrument (Molecular Devices Corporation, Union City, Calif.) using either PatchPlate™ PPC substrates (Molecular Devices Corporation) with 64 apertures per well. The ability to average currents from 64 recordings from each well greatly improves data consistency and recording success rates in the measurement of NaV1.7 mediated ionic currents. Calculated leak current was digitally subtracted from the total cell NaV1.7 current for each sample point acquired.
(§2) NaV1.7 currents were elicited by a voltage clamp protocol designed to bias the NaV1.7 channels to their inactivated state as follows. From holding potential of −60 mV cells were briefly hyperpolarized to −100 mV for 1.25 sec, then stepped to −20 mV for 20 sec to inactivate the channels. This was followed by a relatively brief hyperpolarization to −100 mv for 300 ms, then a 20 msec test pulse to −20 mV to elicit the NaV1.7 current used to measure the pharmacology of all test compounds. Compounds were incubated for 600 sec between the pre- and post-compound reads. The external recording solution used was (in mM) 137 NaCl, 4 KCl, 1 MgCl2, 1.8 CaCl2, 10 Hepes, 10 glucose, pH to 7.4 with NaOH, and the internal solution used was (in mM) 100 K-gluconate, 40 KCl, 3.2 zMgCl2, 5 EGTA, 10 HEPES pH to 7.2 with KOH. The same solutions were used to record NaV1.5 currents, with the following voltage clamp protocol. NaV1.5 currents were elicited by a voltage clamp protocol designed to bias the NaV1.5 channels to their inactivated state as follows. From holding potential of −40 mV cells were briefly hyperpolarized to −100 mV for 300 ms, then stepped to −10 mV for 20 sec to inactivate the channels. This was followed by a relatively brief hyperpolarization to −100 mv for 30 ms, then a 20 msec test pulse to −10 mV to elicit the NaV1.5 current used to measure the pharmacology of all test compounds.
(§3) HEK 293 cells expressing NaV1.7 and NaV1.5 channels, were used (Essen Biosciences, Ann Arbor, Mich.). Cells were cultured in T-175 flasks and passaged every 2 to 3 days at 1:3 to 1:6 seeding density dilutions. Cells were grown to 70% to 90% confluence in a flask and removed from the incubator (37° C., 5% CO2) 1 to 3 days after plating. Growth medium was aspirated from the culture flasks. Cells were gently rinsed with 10 ml of PBS (Catalog number: 14190144, Gibco) to remove residual media. Next a total of 2 mL TrypLE (Gibco) solution was added, and the flasks containing cells were sat for 3 min at RT, after which, the cells became visibly rounded and were easily dislodged from the bottom of the flask with a few brief taps on a solid surface. A total of 8 mL of media was added to the flask to inactivate the TrypLE, and the mixture was centrifuged at 910 rpm for 4 min. The cell supernatant was decanted, and the cell pellets were resuspended in 5-6 mL of external solution followed by gentle triturations using a 10 ml pipette, and transferred to a 15 ml conical tube and immediately brought to the IW Barracuda instrument.
(§4) Peak membrane currents were analyzed with IW Barracuda software and exported to Excel for further analysis. Concentration response curve fitting was performed with BMS in-house software. IC50 values were obtained by fits of the Hill equation to the average percent inhibition data plotted versus compound concentration. […] Results are reported in Table 1 (NaV1.7 Barra IC50 in nM and NaV1.5 Barra IC50 in nM).

NaV1.7 = NaV1.7 (Homo sapiens (Human), UniProt Q15858); experiment: Automated electrophysiology, IonWorks Barracuda population patch clamp, NaV1.7 current (inactivated-state protocol); type: cell-based; details: HEK 293 cells expressing NaV1.7; 600 sec compound incubation; read-out: NaV1.7 Barra IC50
Chain of NaV1.7 (Q15858 whole entry): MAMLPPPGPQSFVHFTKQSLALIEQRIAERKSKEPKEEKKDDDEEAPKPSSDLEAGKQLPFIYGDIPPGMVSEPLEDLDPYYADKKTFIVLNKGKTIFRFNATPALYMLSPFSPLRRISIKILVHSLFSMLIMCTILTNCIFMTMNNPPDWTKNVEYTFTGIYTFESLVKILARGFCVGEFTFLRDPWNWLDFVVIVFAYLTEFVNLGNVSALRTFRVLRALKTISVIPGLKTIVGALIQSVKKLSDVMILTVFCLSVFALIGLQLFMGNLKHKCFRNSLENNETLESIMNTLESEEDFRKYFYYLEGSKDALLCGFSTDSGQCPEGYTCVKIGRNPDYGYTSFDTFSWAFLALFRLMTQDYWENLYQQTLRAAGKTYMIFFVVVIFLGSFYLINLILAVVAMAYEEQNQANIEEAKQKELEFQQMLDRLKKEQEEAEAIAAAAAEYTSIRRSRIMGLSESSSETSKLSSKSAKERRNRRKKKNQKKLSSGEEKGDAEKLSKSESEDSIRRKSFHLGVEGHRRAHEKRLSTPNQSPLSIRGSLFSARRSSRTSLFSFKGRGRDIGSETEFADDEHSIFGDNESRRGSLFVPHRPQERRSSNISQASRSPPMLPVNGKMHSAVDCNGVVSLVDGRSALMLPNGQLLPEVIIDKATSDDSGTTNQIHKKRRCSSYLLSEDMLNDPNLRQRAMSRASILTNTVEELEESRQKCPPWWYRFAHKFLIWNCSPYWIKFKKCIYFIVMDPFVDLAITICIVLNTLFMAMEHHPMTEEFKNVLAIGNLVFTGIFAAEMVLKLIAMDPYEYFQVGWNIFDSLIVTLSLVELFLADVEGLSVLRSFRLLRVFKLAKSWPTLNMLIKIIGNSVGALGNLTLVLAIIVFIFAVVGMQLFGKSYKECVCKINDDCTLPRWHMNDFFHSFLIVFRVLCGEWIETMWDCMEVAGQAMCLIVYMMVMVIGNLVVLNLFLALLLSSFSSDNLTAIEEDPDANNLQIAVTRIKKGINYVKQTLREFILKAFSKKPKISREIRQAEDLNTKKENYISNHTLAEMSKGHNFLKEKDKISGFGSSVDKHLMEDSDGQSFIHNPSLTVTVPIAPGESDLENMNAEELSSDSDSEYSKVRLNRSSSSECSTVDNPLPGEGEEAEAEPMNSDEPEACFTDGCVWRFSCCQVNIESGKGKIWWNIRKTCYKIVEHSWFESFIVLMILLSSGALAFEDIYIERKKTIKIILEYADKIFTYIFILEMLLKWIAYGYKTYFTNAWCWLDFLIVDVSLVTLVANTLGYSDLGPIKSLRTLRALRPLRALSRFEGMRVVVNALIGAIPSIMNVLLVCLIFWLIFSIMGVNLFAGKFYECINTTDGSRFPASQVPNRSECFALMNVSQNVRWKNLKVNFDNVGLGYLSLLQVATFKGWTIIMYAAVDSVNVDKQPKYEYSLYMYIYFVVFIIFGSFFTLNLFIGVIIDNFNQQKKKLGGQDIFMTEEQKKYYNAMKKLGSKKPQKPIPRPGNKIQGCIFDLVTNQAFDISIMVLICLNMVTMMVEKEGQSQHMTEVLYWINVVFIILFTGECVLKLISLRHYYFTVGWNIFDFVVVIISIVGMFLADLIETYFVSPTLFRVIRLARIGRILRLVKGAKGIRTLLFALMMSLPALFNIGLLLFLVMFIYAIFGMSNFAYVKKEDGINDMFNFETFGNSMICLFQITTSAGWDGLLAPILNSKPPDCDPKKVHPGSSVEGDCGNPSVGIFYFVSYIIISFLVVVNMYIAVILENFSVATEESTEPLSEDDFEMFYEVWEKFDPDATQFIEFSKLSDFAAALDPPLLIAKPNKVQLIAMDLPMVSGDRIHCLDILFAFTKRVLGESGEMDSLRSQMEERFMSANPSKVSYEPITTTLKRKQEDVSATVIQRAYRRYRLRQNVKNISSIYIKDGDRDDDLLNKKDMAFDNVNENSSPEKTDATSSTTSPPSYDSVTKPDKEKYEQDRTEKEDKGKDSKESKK
Procedure: as §1, §2, §3, §4

hNaV1.7 = hNaV1.7 (Homo sapiens (Human), UniProt Q15858); experiment: Ligand Binding Assay (LBA), radioligand displacement on hNaV1.7 HEK293 cell membranes; details: 0.5 nM [3H] radioligand, 24 hours at room temperature; read-out: NaV1.7 LBA IC50
Chain of hNaV1.7 (Q15858 whole entry): as above
Procedure: Ligand Binding Assay (LBA): hNaV1.7 binding affinities were determined with a filtration binding assay using purified membranes from HEK293 cells stably expressing hNaV1.7. HEK293 cells from a 10-stack cell culture flask (approximately 10^10 cells) were dissociated, frozen, and stored at −80° C. To prepare membranes, the frozen cell pellet was thawed and suspended in 6 ml hypotonic lysis buffer (50 mM HEPES, 0.1% mammalian protease inhibitor cocktail). 1 ml of resuspended cells was added to an additional 6 ml of lysis buffer and homogenized with 30 strokes of a tight pestle in a glass homogenizer. Homogenate was centrifuged at 1000×g for 10 minutes at 4° C. and the resulting supernatant was further centrifuged at 38,500×g for 60 minutes at 4° C. The resulting pellet was resuspended in binding buffer (50 mM HEPES, 130 mM NaCl, 5.4 mM KCl, 0.8 mM MgCl2, 5 mM glucose, pH 7.4) and needle homogenized with a 25 gauge needle. Protein concentration was determined with a BCA protein assay. Purified membranes were aliquoted, flash frozen in an ethyl alcohol dry ice bath, and stored at −80° C. To measure displacement of a radiolabeled ligand, 50 μg of purified hNaV1.7 HEK cell membranes were incubated with test compounds (eight concentrations, in duplicate) and 0.5 nM [3H] labeled radioligand in a 96 well plate for 24 hours at room temperature on a shaker. The total binding reaction volume was 250 μl, consisting of 200 μl purified hNaV1.7 HEK cell membranes, 25 μl test compound, and 25 μl radioligand. Non-specific binding was defined by 20 μM of a reference hNaV1.7 inhibitor. Binding reactions were terminated by filtration through GF/B filters presoaked in 0.5% polyethyleneamine. Filters were washed 5 times with 2 ml each of 4′C wash buffer (50 mM Tris-HCl, pH 7.4 at 4° C.). Bound radioactivity captured on the filters was counted on a liquid scintillation counter. Specific binding, expressed as % inhibition, was fit with Graphpad Prism software to determine binding IC50 values. Results are reported in Table 1 (NaV1.7 LBA IC50 in nM).

Chain of NaV1.5 (Q14524 whole entry): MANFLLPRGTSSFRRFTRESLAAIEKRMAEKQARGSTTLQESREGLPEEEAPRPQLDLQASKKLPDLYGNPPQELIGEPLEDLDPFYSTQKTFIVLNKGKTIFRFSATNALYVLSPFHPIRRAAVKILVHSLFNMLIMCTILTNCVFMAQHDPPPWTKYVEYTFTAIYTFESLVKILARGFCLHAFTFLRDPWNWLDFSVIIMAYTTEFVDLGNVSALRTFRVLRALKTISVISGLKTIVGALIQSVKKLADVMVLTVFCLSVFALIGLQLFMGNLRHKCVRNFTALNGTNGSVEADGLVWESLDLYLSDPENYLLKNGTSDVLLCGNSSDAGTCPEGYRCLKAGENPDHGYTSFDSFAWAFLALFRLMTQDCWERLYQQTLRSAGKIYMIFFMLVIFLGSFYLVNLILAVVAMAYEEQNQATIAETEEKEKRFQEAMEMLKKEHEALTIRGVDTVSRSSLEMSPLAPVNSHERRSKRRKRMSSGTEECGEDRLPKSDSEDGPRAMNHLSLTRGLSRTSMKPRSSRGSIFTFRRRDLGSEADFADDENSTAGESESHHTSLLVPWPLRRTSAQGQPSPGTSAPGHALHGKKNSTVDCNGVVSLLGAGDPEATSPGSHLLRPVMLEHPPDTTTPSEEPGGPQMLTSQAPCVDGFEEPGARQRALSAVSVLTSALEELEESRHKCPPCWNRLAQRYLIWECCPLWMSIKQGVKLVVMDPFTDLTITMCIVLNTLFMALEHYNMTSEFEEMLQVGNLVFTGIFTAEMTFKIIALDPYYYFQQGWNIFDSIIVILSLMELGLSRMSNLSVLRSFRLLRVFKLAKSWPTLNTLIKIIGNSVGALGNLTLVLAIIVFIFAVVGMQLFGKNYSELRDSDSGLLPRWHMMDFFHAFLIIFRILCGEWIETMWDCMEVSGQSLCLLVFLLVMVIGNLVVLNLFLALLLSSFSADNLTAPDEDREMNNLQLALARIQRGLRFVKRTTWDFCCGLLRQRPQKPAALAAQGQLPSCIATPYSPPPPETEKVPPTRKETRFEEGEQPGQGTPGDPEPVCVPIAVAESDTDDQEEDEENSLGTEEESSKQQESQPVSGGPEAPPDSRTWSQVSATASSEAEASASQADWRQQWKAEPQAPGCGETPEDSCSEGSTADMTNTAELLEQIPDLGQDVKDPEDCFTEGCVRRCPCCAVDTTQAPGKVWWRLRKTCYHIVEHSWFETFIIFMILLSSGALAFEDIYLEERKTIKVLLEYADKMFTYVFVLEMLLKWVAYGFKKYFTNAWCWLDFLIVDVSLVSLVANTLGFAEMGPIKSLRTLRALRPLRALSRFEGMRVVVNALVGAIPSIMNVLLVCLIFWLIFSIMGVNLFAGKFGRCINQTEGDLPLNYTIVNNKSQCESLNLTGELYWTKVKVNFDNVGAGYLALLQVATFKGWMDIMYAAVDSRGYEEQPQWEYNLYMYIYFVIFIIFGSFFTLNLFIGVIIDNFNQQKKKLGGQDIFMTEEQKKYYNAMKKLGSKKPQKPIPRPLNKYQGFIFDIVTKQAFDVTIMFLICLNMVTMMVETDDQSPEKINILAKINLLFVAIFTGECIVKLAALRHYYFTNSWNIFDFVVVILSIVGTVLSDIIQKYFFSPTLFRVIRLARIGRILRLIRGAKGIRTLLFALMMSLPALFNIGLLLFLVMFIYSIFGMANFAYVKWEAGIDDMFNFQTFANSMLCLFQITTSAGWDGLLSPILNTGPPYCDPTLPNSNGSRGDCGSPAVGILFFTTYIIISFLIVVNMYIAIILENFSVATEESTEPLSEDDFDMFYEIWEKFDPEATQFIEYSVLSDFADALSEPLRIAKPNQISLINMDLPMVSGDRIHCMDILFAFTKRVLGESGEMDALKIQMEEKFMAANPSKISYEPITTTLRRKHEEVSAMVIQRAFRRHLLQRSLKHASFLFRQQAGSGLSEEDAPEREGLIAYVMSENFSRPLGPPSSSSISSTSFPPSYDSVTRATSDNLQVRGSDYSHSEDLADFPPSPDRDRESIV

Structure (SMILES)	IC50 (NaV1.5) [nM]	IC50 (NaV1.7) [nM]	IC50 (hNaV1.7) [nM]
Cn1cc(-c2ccc(C(F)(F)F)cc2)c2ccc(C(=O)NS(C)(=O)=O)cc21 [Example 1, 1-Methyl-N-(methylsulfonyl)-3-(4-(trifluoromethyl)phenyl)-1H-indole-6-carboxamide]	19600	85	422
CC(C)COc1ncc(-c2cn(C)c3cc(C(=O)NS(C)(=O)=O)ccc23)cc1Cl [Example 2, 3-(5-Chloro-6-isobutoxypyridin-3-yl)-1-methyl-N-(methylsulfonyl)-1H-indole-6-carboxamide]	18300	90	91
Cn1cc(-c2cccc(F)c2F)c2ccc(C(=O)NS(C)(=O)=O)cc21 [Example 3, 3-(2,3-Difluorophenyl)-1-methyl-N-(methylsulfonyl)-1H-indole-6-carboxamide]	> 30000	2860	4940
Cn1cc(-c2ccc(OC(F)(F)F)cc2)c2ccc(C(=O)NS(C)(=O)=O)cc21 [Example 4, 1-Methyl-N-(methylsulfonyl)-3-(4-(trifluoromethoxy)phenyl)-1H-indole-6-carboxamide]	18300	80	243
Cn1cc(-c2ccccc2)c2ccc(C(=O)NS(C)(=O)=O)cc21 [Example 5, 1-Methyl-N-(methylsulfonyl)-3-phenyl-1H-indole-6-carboxamide]	> 30000	743	7270
COc1ncccc1-c1cn(C)c2cc(C(=O)NS(C)(=O)=O)ccc12 [Example 6, 3-(2-Methoxypyridin-3-yl)-1-methyl-N-(methylsulfonyl)-1H-indole-6-carboxamide]	> 30000	> 30000	> 30000
Cn1cc(-c2cncc(F)c2)c2ccc(C(=O)NS(C)(=O)=O)cc21 [Example 7, 3-(5-Fluoropyridin-3-yl)-1-methyl-N-(methylsulfonyl)-1H-indole-6-carboxamide]	> 30000	> 30000	
Cn1cc(-c2cccnc2)c2ccc(C(=O)NS(C)(=O)=O)cc21 [Example 8, 1-Methyl-N-(methylsulfonyl)-3-(pyridin-3-yl)-1H-indole-6-carboxamide]		> 30000	
CCOc1ncc(-c2cn(C)c3cc(C(=O)NS(C)(=O)=O)ccc23)cn1 [Example 9, 3-(2-Ethoxypyrimidin-5-yl)-1-methyl-N-(methylsulfonyl)-1H-indole-6-carboxamide]	> 30000	> 30000	> 20000
Cc1ccc(-c2cn(C)c3cc(C(=O)NS(C)(=O)=O)ccc23)cc1 [Example 10, 1-Methyl-N-(methylsulfonyl)-3-(p-tolyl)-1H-indole-6-carboxamide]	> 30000	739	1030
Cn1cc(-c2ccc(C(F)(F)F)cc2Cl)c2ccc(C(=O)NS(C)(=O)=O)cc21 [Example 11, 3-(2-Chloro-4-(trifluoromethyl)phenyl)-1-methyl-N-(methylsulfonyl)-1H-indole-6-carboxamide]	8640	604	750
CC(C)Cc1ccc(-c2cn(C)c3cc(C(=O)NS(C)(=O)=O)ccc23)cc1 [Example 12, 3-(4-Isobutylphenyl)-1-methyl-N-(methylsulfonyl)-1H-indole-6-carboxamide]	> 30000	363	317
Cn1cc(-c2cccc(C(F)(F)F)c2)c2ccc(C(=O)NS(C)(=O)=O)cc21 [Example 13, 1-Methyl-N-(methylsulfonyl)-3-(3-(trifluoromethyl)phenyl)-1H-indole-6-carboxamide]	> 30000	1420	290
CCc1ccc(-c2cn(C)c3cc(C(=O)NS(C)(=O)=O)ccc23)cc1 [Example 14, 3-(4-Ethylphenyl)-1-methyl-N-(methylsulfonyl)-1H-indole-6-carboxamide]	> 30000	173	554
Cc1cccc(-c2cn(C)c3cc(C(=O)NS(C)(=O)=O)ccc23)c1 [Example 15, 1-Methyl-N-(methylsulfonyl)-3-(m-tolyl)-1H-indole-6-carboxamide]	> 30000	375	943
CC(C)COc1ccc(-c2cn(C)c3cc(C(=O)NS(C)(=O)=O)ccc23)cc1 [Example 22, 3-(4-Isobutoxyphenyl)-1-methyl-N-(methylsulfonyl)-1H-indole-6-carboxamide]		525	275
CC(C)COc1ncc(-c2cn(C)c3cc(C(=O)NS(=O)(=O)N(C)C)ccc23)cc1Cl [Example 25, 3-(5-Chloro-6-isobutoxypyridin-3-yl)-N—(N,N-dimethylsulfamoyl)-1-methyl-1H-indole-6-carboxamide]	6330	1280	
CC(C)COc1ncc(-c2cn(C)c3cc(C(=O)NS(=O)(=O)N4CCCCC4)ccc23)cc1Cl [Example 26, 3-(5-Chloro-6-isobutoxypyridin-3-yl)-1-methyl-N-(piperidin-1-ylsulfonyl)-1H-indole-6-carboxamide]	8770	4180	
CC(C)COc1ncc(-c2cn(CC(C)C)c3cc(C(=O)NS(C)(=O)=O)ccc23)cc1Cl [Example 27, 3-(5-Chloro-6-isobutoxypyridin-3-yl)-1-isobutyl-N-(methylsulfonyl)-1H-indole-6-carboxamide]	23700	3330	
CC(C)COc1ncc(-c2cn(CC(C)C)c3cc(C(=O)NS(=O)(=O)C4CC4)ccc23)cc1Cl [Example 28, 3-(5-Chloro-6-isobutoxypyridin-3-yl)-N-(cyclopropylsulfonyl)-1-isobutyl-1H-indole-6-carboxamide]	11300	8050	
CN(C)S(=O)(=O)NC(=O)c1ccc2c(-c3ccc(C(F)F)cc3)cn(C)c2c1 [Example 32, 3-(4-(Difluoromethyl)phenyl)-N—(N,N-dimethylsulfamoyl)-1-methyl-1H-indole-6-carboxamide]	> 30000	1910	
CN(C)S(=O)(=O)NC(=O)c1ccc2c(-c3ccc(C(F)(F)F)cc3)cn(C)c2c1 [Example 33]	24500	1920	
